A short description of one data set: physchem. As to conditions: octanol/water.
For data set [1], the system named is Human immunodeficiency virus 1. The data set can be described thus: microbe, parasite or virus in culture. As to conditions: Human immunodeficiency virus 1, read-out: pIC50 (converted).
Description: Antiviral activity against wild type Human immunodeficiency virus 1

Description for physchem: Octanol-water partition coefficient, log P of the compound

`N#C/N=C(\NCCc1ccc(C#N)cc1)N/C(Cc1c(Cl)cccc1Cl)=N\c1ccccc1` showed a logP in “physchem” of 5.98. Also, the IC50 in data set [1] was 158 nM.
`CN(C)C(Cc1c(Cl)cccc1Cl)NC(=N)Nc1ccc(C#N)cc1` (stereo not drawn) showed a logP in “physchem” of 7.06. Also, the IC50 in data set [1] is 757 nM.
Taken in the same sequence, the figures for `N=C(Cc1c(Cl)cccc1Cl)NC(=S)Nc1ccc(Cl)cc1` were 4.19 and 13 nM.
`N#Cc1ccc(NC(=S)NC(=N)Cc2c(Cl)cccc2Cl)cc1` displayed a logP in “physchem” of 4.83. Besides, the IC50 in data set [1] was 126 nM.
`N#Cc1ccc(NC(=S)NC(=N)C2(c3c(Cl)cccc3Cl)CC2)cc1` had a logP in “physchem” of 6.11. In addition, in data set [1], the IC50 is 676 nM.
In the case of `C/N=C(/Cc1c(Cl)cccc1Cl)NC(=O)Nc1ccc(C#N)cc1`, the logP in “physchem” turned out to be 5.96. The IC50 in data set [1] is 214 nM.
In the case of `N#Cc1ccc(NC(=S)NC(=N)c2c(Cl)cccc2Cl)cc1`, the logP in the data set “physchem” came out at 5.46. For the same molecule, the IC50 in data set [1] is 43.7 nM.
Consider `CN/C(Cc1c(Cl)cccc1Cl)=N\C(S)=N\c1ccc(C#N)cc1`, for which the logP in “physchem” turned out to be 6.75. In addition, the IC50 in data set [1] was 77.4 nM.
In “physchem”, `CN(C)C(Cc1c(Cl)cccc1Cl)/N=C(\S)Nc1ccc(C#N)cc1` (stereo not drawn) yielded a logP of 5.64.
As to `N#Cc1ccc(N/C(S)=N/C(=N)Cc2c(F)cccc2F)cc1`, the logP in “physchem” was determined as 2.95. In addition, the IC50 in data set [1] was 6 nM.
Molecule `N=C(Cc1c(Cl)cccc1Cl)NC(=S)NCc1ccc(Cl)cc1` gave a logP in “physchem” of 5.97. In addition, the IC50 in data set [1] is 692 nM.
For the molecule `Cc1ccccc1CC(=N)/N=C(\S)Nc1ccc(C#N)cc1`, the logP in the data set “physchem” amounted to 3.13. In addition, the IC50 in data set [1] is 26 nM.
With `COc1ccccc1CC(=N)/N=C(\S)Nc1ccc(C#N)cc1`, the logP in the data set “physchem” is 2.42. In data set [1], the IC50 is 30 nM.
Take `N#Cc1ccc(NC(=S)NC(=N)Cc2ccccc2)cc1`: in the data set “physchem”, the logP is 2.67. The IC50 in data set [1] is 380 nM.
Taken in the same sequence, the figures for `N#Cc1ccc(NC(=S)NC(=N)Cc2cccc(Cl)c2)cc1` were 3.19 and 67.9 nM.
Taken in the same sequence, the figures for `N#Cc1ccc(NC(=S)NC(=N)Cc2ccc(Cl)cc2Cl)cc1` were 3.7 and 7 nM.
The molecule `N=C(Cc1c(Cl)cccc1Cl)NC(=S)Nc1ccc(Cl)cc1Cl` yielded a logP in the data set “physchem” of 4.7. In addition, the IC50 in data set [1] was 347 nM.
Take `CC(C(=N)/N=C(\S)Nc1ccc(C#N)cc1)c1c(Cl)cccc1Cl` (stereo not drawn): the logP in “physchem” came out at 5.95. Also, the IC50 in data set [1] is 158 nM.
`N#Cc1ccc(NC(=S)NC(=N)Cc2ccccc2Cl)cc1` gave a logP in the data set “physchem” of 3.19. In addition, the IC50 in data set [1] is 14 nM.
Consider `N#Cc1ccc(NC(=S)NC(=N)CCc2c(Cl)cccc2Cl)cc1`, for which the logP in the data set “physchem” was 5.79. For the same molecule, the IC50 in data set [1] was 525 nM.
`N=C(Cc1c(Cl)cccc1Cl)NC(=S)Nc1ccccc1` displayed a logP in “physchem” of 3.67. In addition, the IC50 in data set [1] is 123 nM.
Molecule `CCN/C(Cc1c(Cl)cccc1Cl)=N\C(S)=N\c1ccc(C#N)cc1` gave a logP in the data set “physchem” of 5.77. Moreover, the IC50 in data set [1] is 195 nM.
In the data set “physchem”, `N#Cc1ccc(NC(=O)NC(=N)Cc2c(Cl)cccc2Cl)cc1` displayed a logP of 3.71. In addition, the IC50 in data set [1] was 15 nM.
As to `N=C(Cc1c(Cl)cccc1Cl)NC(=S)NCCc1ccc(Cl)cc1`, in “physchem”, the logP was found to be 6.22. The IC50 in data set [1] is 617 nM.
In “physchem”, `N#Cc1cccc(NC(=S)NC(=N)Cc2c(Cl)cccc2Cl)c1` registered a logP of 3.7. Moreover, in data set [1], the IC50 is 126 nM.
For the molecule `N#Cc1ccc(NC(=S)NC(=N)Cc2c(Cl)ccc(Cl)c2Cl)cc1`, the lipophilicity (logP) in the data set “physchem” was 4.22. The IC50 in data set [1] was 5 nM.
In “physchem”, `N#Cc1ccc(NC(=S)NC(=N)Cc2ccc(Cl)cc2)cc1` displayed a log partition coefficient (logP) of 3.19. The IC50 in data set [1] is 148 nM.

The values above are taken from ChEMBL document CHEMBL3046335, “Prediction of anti-HIV activity of imidoyl thioureas: QSAR approach” (Med Chem Res, 2009).
